# Patent US8017350B2, “Glimepiride- and insulin-induced glycosylphosphatidylinositol-specific phospholipase C regulation” (Sanofi-Aventis Deutschland GmbH, priority 2004, dated 2011)
# Entries after “also recorded” stand apart in the source; their conditions may differ.
# Columns and labels:
# rat adipocyte GPI-PLC = assay: adipocyte GPI-PLC assay (plasma membranes or hc/lcDIGs, AChE substrate, TX-114 partitioning); type: biochemical
# Experimental: GPI-PLD (rat serum) was assayed according to “Hari et al. (1997) Biochim. Biophys. Acta 1355: 293-302” by incubation with 10 μl of human placental aP solution (100 U/ml in 10 mM Hepes/NaOH, pH 7.0, 150 mM NaCl) in 100 μl of 200 mM Tris/maleate (pH 7.0) and 1% Nonidet P-40 for 10 min at 37° C. and subsequent termination of the reaction by addition of 0.4 ml of ice-cold stop buffer (10 mM Hepes/NaOH, pH 7.0, 150 mM NaCl, 0.1 mM MgCl2 and 0.01 mM zinc acetate). GPI-PLC (T. brucei) was assayed as described in “Mensa-Wilmot et al. (1995) Methods Enzymol. 250: 641-655” by incubation with 5 μl of human placental aP solution (see above) in 50 μl of 50 mM Tris/HCl (pH 8.0), 0.25% Nonidet P-40 and 5 mM EDTA for 30 min at 37° C. and subsequent termination of the reaction by addition of 0.45 ml of stop buffer. PI-PLC (B. cereus) and adipocyte GPI-PLC (5-25 μg plasma membranes or hc/lcDIGs) were assayed by incubation with 10 μl of bovine erythrocyte acetylcholinesterase (AChE) solution (12 U/ml in 10 mM Tris/HCl, pH 7.4, 144 mM NaCl, 0.1% TX-100) in 100 μl of 20 mM Hepes/KOH (pH 7.8), 144 mM NaCl, 0.1% TX-100, 0.2 mM MgCl2 for 1 h at 25° C. and subsequent termination by adding 5 μl of glacial acetic acid and then 0.4 ml of 10 mM Tris/HCl (pH 7.4), 144 mM NaCl. Each reaction mixture was subjected to TX-114 partitioning (see below).
# Pelleted hc/lcDIGs (10-50 μg protein) or (G)PI-PLC reaction mixtures (0.5 ml) were separated into amphiphilic and hydrophilic proteins using partitioning between TX-114-enriched and depleted phases according to “Bordier, C., (1981) J. Biol, Chem. […]” by suspending in 1 ml of ice-cold TX-114 (1%), 25 mM Tris/HCl (pH 7.4), 144 mM NaCl or mixing with 0.5 ml of ice-cold TX-114 (2%), respectively. After incubation for 1 h on ice, the mixture was layered onto a cushion of 0.4 ml of 0.25 M sucrose and 25 mM Tris/HCl (pH 7.4) on ice. Phase separation was induced by warming up to 37° C. and subsequent centrifugation (10,000×g, 1 min). After re-extraction of the lower TX-114-enriched phase, aliquots of the pooled upper TX-114-depleted phase were measured for 5′-Nuc, aP and AChE activity or precipitated (15 polyethylene glycol 4000) for SDS-PAGE analysis.
# Table 1: GPI-PLC of hcDIGs from rat adipocytes, GPI-PLC from T. brucei and PI-PLC from B. cereus were incubated with solubilized and partially purified bovine erythrocyte AChE or human placental aP in the absence or presence of increasing concentrations (0.05 μM-1 mM) of the inhibitors indicated under appropriate conditions (see Materials and Methods). Cleavage rate was calculated from the amount of hydrophilic AChE and aP activity recovered with the TX-114-depleted phase upon TX-114 partitioning. […]
# [1] = tested on: pp59Lyn and Gce1 interaction with caveolin-1 in rat adipocytes; assay: dissociation of signaling proteins from caveolin (caveolin-1 immunoprecipitates of hcDIGs); type: cell-based; conditions: 50 μM
# Experimental: Solubilized DIGs (see above, 5-20 μg protein) were precleared by incubation with protein A/G-Sepharose and subsequent centrifugation (10,000×g, 5 min). The supernatant was incubated with anti-caveolin-1 antibodies (1:1000) preadsorbed on protein A/G-Sepharose in 1 ml of 10 mM Tris/HCl (pH 7.4), 150 mM NaCl, 1% TX-100 for 1 h at 4° C. The immune complexes were washed twice with the same buffer and then twice with buffer lacking TX-100 and finally subjected to SDS-PAGE performed in the absence of β-mercaptoethanol. The recovery of immunoprecipitated caveolin was normalized by homologous immunoblotting with anti-caveolin antibodies of the same blot following stripping of the membrane.
# Polypeptides separated by SDS-PAGE were transferred to polyvinylidene difluoride membranes using the semidry procedure as described in “Müller, G. et al., (2001) Mol. Cell. Biol. 21: 4553-4567”. Washed membranes were incubated with anti-caveolin-1 (1:2000), anti-pp59^Lyn (1:1250), anti-aP (1:500), anti-5′-Nuc (1:750) and anti-IRS-1 (1:2000) antibodies for 4 h at 15° C. Washed membranes were incubated with horseradish peroxidase-coupled secondary goat anti-mouse (1:2000) or goat anti-rabbit IgG (1:4000) antibodies. Labeled proteins were visualized by enhanced chemiluminescence.
# FIG. 6: Effect of GPI-2350 on the glimepiride/insulin-induced dissociation of signaling proteins from caveolin. Isolated rat adipocytes were treated (5 min, 37° C.) without or with GPI-2350 (left panels, 50 μM; right panels, increasing conc.) and then incubated (120 min, 37° C.) in the absence or presence of insulin (10 nM) or glimepiride (20 μM). hcDIGs were prepared from the adipocytes and then solubilized. Caveolin-1 immunoprecipitates prepared from the solubilized hcDIGs were assayed for the presence of pp59^Lyn and Gce1 by immunoblotting and photoaffinity-labeling, respectively. […]
# [2] = tested on: GPI-PLC, rat adipocyte plasma membrane/DIGs; assay: Inhibition of adipocyte GPI-PLC (plasma membranes, lcDIGs or hcDIGs), substrate AChE; type: biochemical
smiles,measurement,setting,value
"CCCCCCCCCCCCP1(=O)O[C@@H]2[C@H](O)[C@@H](O)[C@H](O)[C@@H](O)[C@@H]2O1 (stereo partly shown) [GPI-2350, myo-inositol-1,2-cyclo-dodecylphosphonic acid]",IC50,"rat adipocyte GPI-PLC; GPI-PLC of hcDIGs from rat adipocytes, inhibitor 0.05 μM-1 mM",200 to 500 nM
same,lipolytic cleavage of AChE after washout,"rat adipocyte GPI-PLC; hcDIGs treated with 50 μM, reisolated, extensively washed, incubated without inhibitor",only low lipolytic cleavage
same,effect on insulin-/glimepiride-induced dissociation of pp59Lyn and Gce1 from caveolin,[1],completely abrogated; also recorded: almost complete blockade
same,inhibition in words,[2],potent inhibitor
